The source of these data is patent US11110070B2 (priority 2015, dated 2021).

“Also recorded” adds a separate entry of the source.

Common to all, as to format: in vivo
Test [1] deals with 129S6/SvEvTac mice. The test can be described thus: Forced swim test (FST) in social defeat (SD) model. The procedure:
Experiment 1 (Pre-ketamine in social defeat (SD)): At 8 weeks of age, a single injection of saline (0.9% NaCl) or ketamine (K) (10, 30, or 90 mg kg^−1) (Ketaset III, Ketamine HCl, Fort Dodge Animal Health, Forth Dodge, Iowa) was administered. Ketamine was prepared in physiological saline and all injections were administered intraperitoneally (i.p.) in volumes of 0.1 cc per […]. […] At 9 weeks of age, 1 week following this injection, SD was started.
24 h after the last bout of SD, a single injection of saline or ketamine (30 mg kg^−1) was administered (mice were 11 weeks old). The forced swim test (PST) was administered 2 h following the injection.
Experiment 3 (Pre-fluoxetine in SD): At 6 weeks of age, fluoxetine hydrochloride (Fix) (BioTrend Chemicals AG, B6197) was administered in the drinking water (18 mg kg^−1/day) for 3 weeks before the start of SD. Starting at 9 weeks of age, SD was then administered for 2 weeks without vehicle or Flx in the drinking water.
Adult aggressor CD-1 male mice were single-housed in Macrolon® polycarbonate resin cages (15.25 in×7.8 in×9.5 in) (Animal Care Systems, Inc., Centennial, Colo.). Male 129S6/SvEvTac mice (9 weeks of age) were subsequently placed into the resident. CD-1 mouse's cage. Three antagonistic encounters were allowed between the CD-1 mouse and the intruder. Each of these encounters typically lasted less than 5 min. Following the encounters, mice were separated by a polished stainless steel cage divider (Animal Care Systems, Inc., Centennial, Colo., P/N C79171), which allowed for olfactory and auditory communication, but limited visual or tactile contact. The partition was removed daily for 2 weeks and 3 antagonistic encounters were allowed between the mice each day. This procedure consistently yielded a submissive phenotype in the experimental intruder mice. Control (Ctrl) mice were group housed 4 to 5 per cage in Macrolon® polycarbonate resin cages without dividers.
The FST was administered as previously described (A11). Briefly, mice were placed into clear plastic buckets 20 cm in diameter and 23 cm deep filled ⅔ of the way with 22° C. water. Mice were videotaped, from the side for 6 min and were exposed to the swim test on 2 consecutive days. For the SI) experiments, scoring was performed using an automated Viewpoint Videotrack software package (http://www.viewpoint.fr/en/a/anxiety-and-depression). For the CORT experiments, automated scoring was done using the automated X'PERT EST software suite (Bioseb, Vitrolles, France). The dependent variable was immobility.

Test [2] deals with 129S6/SvEvTac mice. The test can be described thus: Learned helplessness (LH) shock escape. The conditions noted are these: ketamine 30 mg kg^−1 1 week before LH training, vs saline. The method, then: Experiment 4 (Pre-ketamine in learned helplessness (LH)); At 8 weeks of age, a single injection of saline or ketamine (30 mg kg^−1) was administered. One week following this injection, LH training (inescapable shock) was administered. Two weeks later, mice were administered LH testing (shock escape).
The LH paradigm was used to induce depressive-like behavior (A4). In this paradigm, mice are exposed to unpredictable and uncontrollable stress (shocks) and then develop coping deficits to deal with the inescapable shocks. We modified a previously published paradigm (A5). Briefly, the procedure was conducted in a two-chamber shuttle box (model ENV 010MD; Med Associates, St. Albans, Vt.) located within a sound-attenuated cubicle. The grid floor was made of stainless steel and connected to a shock generator. The scrambled shock generator (model ENV 414S, Med Associates) created varying electrical potential differences between bars preventing an animal from avoiding shock.
Inescapable shock (training): At approximately 9 weeks of age, mice were trained in the LH paradigm. For each shuttle box, 2 animals were administered the protocol at the same time: the central door was closed, with one animal in the chamber on each side. After a 3 min habituation period, the shock deliveries began. […]

The test system of the next test is C57BL/6NTac mice. The test can be described thus: EPM in CORT model. The following applies: ketamine or fluoxetine before CORT. The procedure: Experiment 5 (Pre-ketamine and pre-fluoxetine corticosterone (CORT)): C57BL16NTac mice were injected with ketamine (10, 30, 90 mg kg^−1, i.p.) 1 week before the start of CORT, or administered fluoxetine (18 mg kg^−1 per day) in the drinking water for 3 weeks before the start of CORT. Ketamine was purchased from Merial (100 mg/ml stock solution). Fluoxetine hydrochloride (160 μg/mL, equivalent to 18 mg kg^−1 per day in the drinking water) was purchased from Anawa Trading (Zurich, Switzerland) and dissolved in 0.45% hydroxypropyl-β-cyclodextrin (β-CD) (Sigma-Aldrich, Saint-Quentin Fallavier, France) solution. Following ketamine or fluoxetine treatment, CORT was administered for 3 weeks in the drinking water. CORT (4-pregnen-11b-DIOL-3 20-DIONE 21-hemisuccinate) (35 μg/ml) from. Sigma Aldrich (Saint-Quentin Fallavier, France) was dissolved in vehicle (0.45% β-CD). Control animals received vehicle (0.45% β-CD) throughout the duration of the experiment.
Testing was performed as previously described (A14). […] For the 12956/SvEv experiments, videos were scored using behavioral tracking software (TopScan, CleverSys, Reston, Va.). For the C57BL/6Ntac experiments, all parameters were measured using a videotracker (EPM3C. Bioseb, Vitrolles, France).

As for `CNC1(c2ccccc2Cl)CCCCC1=O` (racemic) [ketamine, (RS)-2-(2-chlorophenyl)-2-(methylamino)cyclohexanone], the “immobility time, day 2 of FST” value is recorded as “equal levels of immobility time; also recorded: did not differ from each other” with 129S6/SvEvTac mice [1] (Ctrl (group housed) mice, ketamine 30 mg kg^−1 single i.p. injection, vs Ctrl-Sal); “did not display different immobility time” in the test with 129S6/SvEvTac mice [1] (Ctrl mice, ketamine 30 mg kg^−1 in the post-SD design); “significantly decreased immobility time; also recorded: significantly less immobility time” with 129S6/SvEvTac mice [1] (SD mice, ketamine 30 mg kg^−1 single injection 1 week before 2 weeks of SD, vs SD-Sal). In addition, the “immobility time in FST” value with 129S6/SvEvTac mice [1] (SD mice, ketamine 10 mg kg^−1 before SD, vs SD-Sal) is on record as “did not differ in immobility time”; in the test on 129S6/SvEvTac mice [1] (SD mice, ketamine 90 mg kg^−1 before SD, vs SD-Sal), “did not differ in immobility time”. Further, the “average immobility time for minutes 3 to 6 of FST” value in the test on 129S6/SvEvTac mice [1] (SD mice, ketamine 30 mg kg^−1 before SD, vs SD-Sal) is “less than the SD-Sal mice; also recorded: decreased immobility”. Also, the “persistence of ketamine-induced resilience post-injection” value with 129S6/SvEvTac mice [1] (SD model) is “at least 3 weeks”. Further, in the test on 129S6/SvEvTac mice [1] (doses tested 10, 30, 90 mg kg^−1), the “dose found to be effective in the SD paradigm” value came out at 30 mg/kg. The “immobility time, minutes 3 to 6 averaged” value in the test on 129S6/SvEvTac mice [1] (ketamine given after SD) is given as “did not decrease immobility time”. Also, the “latency to escape the shock” value in the test on 129S6/SvEvTac mice [2] (testing 2 weeks later) is given as “decreased latency to escape the shock; also recorded: significantly less”. In addition, in the test with 129S6/SvEvTac mice [2], the “session length (all 30 trials)” value is listed as “significantly shorter; also recorded: significantly less”. For the same molecule, the “time in the closed arms of EPM (anxiety-like phenotype)” value with C57BL/6NTac mice is “Neither ketamine nor fluoxetine robustly protected”.
